Measurements from publication PMC5999033 (European journal of medicinal chemistry, 2018).
Like-named read-outs stand apart in the source and are kept apart here. Blank lines part the entries; values can stand above or below the compound they belong to.

Tests used:
[1] = target: T1, FABP7 (Homo sapiens, UniProt O15540); assay: Direct ligand binding assay of fluorescent probes, FABP7
[2] = target: FABP4 (Homo sapiens, UniProt P15090); assay: FABP4 inhibition; conditions: Fig. S5
[3] = Dynamic light scattering, colloidal aggregation; assay type: physicochemical; conditions: 20 μM in PBS, 24°C
[4] = test system: formalin-induced mouse models; conditions: cited from earlier work
[5] = target: T2, FABP5 (Homo sapiens, UniProt Q01469); conditions: read-out: Kd towards FABP5; determined in a previous study; cited from earlier work
[6] = target: T3, FABP3 (Homo sapiens, UniProt P05413); conditions: read-out: Kd towards FABP3; determined in a previous study; cited from earlier work
[7] = target: T1, FABP7; conditions: read-out: Kd towards FABP7; determined in a previous study; cited from earlier work
[8] = target: T2, FABP5; assay: Direct ligand binding assay of fluorescent probes, FABP5
[9] = target: T3, FABP3; assay: Direct ligand binding assay of fluorescent probes, FABP3

Chain of FABP4 (P15090 whole entry): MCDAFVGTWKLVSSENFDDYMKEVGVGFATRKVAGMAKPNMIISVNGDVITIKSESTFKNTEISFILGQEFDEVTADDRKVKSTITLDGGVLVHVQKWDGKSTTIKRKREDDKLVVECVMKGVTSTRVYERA
T3 sequence (P05413 whole entry): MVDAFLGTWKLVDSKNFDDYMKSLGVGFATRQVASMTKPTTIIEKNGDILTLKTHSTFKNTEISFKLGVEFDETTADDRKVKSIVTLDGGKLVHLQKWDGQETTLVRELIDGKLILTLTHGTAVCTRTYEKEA
T2 sequence (Q01469 whole entry): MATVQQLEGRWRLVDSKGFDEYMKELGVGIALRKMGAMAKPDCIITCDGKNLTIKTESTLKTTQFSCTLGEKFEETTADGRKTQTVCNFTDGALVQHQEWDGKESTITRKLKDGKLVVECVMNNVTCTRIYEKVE
T1 sequence (O15540 whole entry): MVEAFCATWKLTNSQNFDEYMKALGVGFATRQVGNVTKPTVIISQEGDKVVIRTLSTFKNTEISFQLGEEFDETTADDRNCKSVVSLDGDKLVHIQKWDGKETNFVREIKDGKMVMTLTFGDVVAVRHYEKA

Kd [1]: 1.01 µM
Compound: O=S(=O)(O)c1cccc2cccc(Nc3ccccc3)c12 [ANS, 1-Anilinonaphthalene-8-sulfonic Acid]

FABP4 inhibition [2]: do not appreciably inhibit FABP4
Compound: COc1ccccc1[C@H]1[C@H](C(=O)O)[C@H](c2ccccc2OC)[C@H]1C(=O)OCC1c2ccccc2-c2ccccc21 (racemic) [Compound 4j, 9-Fluorenylmethyl α-3-hydroxycarbonyl-2,4-di(2-methoxylphenyl)cyclobutane-1-carboxylate]

colloidal aggregation by DLS [3]: no evidence of colloidal aggregation
Compound: O=C(O)C1C(c2ccccc2)C(C(=O)O[C@@H]2CCCC[C@H]2c2ccccc2)C1c1ccccc1 (stereo partly drawn) [Compound 3l, 1-[(1R,2S)-2-Phenylcyclohexyl] α-3-hydroxycarbonyl-2,4-diphenylcyclobutane-1-carboxylate]

Compound: COc1cc([C@H]2[C@H](C(=O)O[C@@H]3C[C@@H]4[C@@H](CN(C)C[C@@H]4C)[C@@H]3C)[C@H](c3ccc(O)c(OC)c3)[C@H]2C(=O)O[C@@H]2C[C@@H]3[C@@H](CN(C)C[C@@H]3C)[C@@H]2C)ccc1O [(-)-incarvillateine]
analgesic and anti-inflammatory effects [4]: potent analgesic and anti-inflammatory effects

FABP4 inhibition [2]: do not appreciably inhibit FABP4
Compound: C#Cc1cccc(OC(=O)[C@H]2[C@@H](c3ccccc3)[C@H](C(=O)O)[C@@H]2c2ccccc2)c1 (racemic) [Compound 3f, 1-(3-Ethynylphenyl) α-3-hydroxycarbonyl-2,4-diphenylcyclobutane-1-carboxylate]

Compound: CCCCCCC(CCCCCCCCCCC(=O)O)N(C)c1ccc([N+](=O)[O-])c2nonc12 (centres unmarked) [NBD-stearate, 12-N-methyl-(7-nitrobenz-2-oxa-1,3-diazo)aminostearic acid]
Kd [5]: 0.16 µM
Kd [6]: 0.018 µM
Kd [7]: 0.22 µM

FABP4 inhibition [2]: do not appreciably inhibit FABP4
Compound: COc1ccccc1[C@H]1[C@H](C(=O)O)[C@H](c2ccccc2OC)[C@H]1C(=O)Oc1cccc2ccccc12 (racemic) [Compound 4b, 1-Naphthyl α-3-hydroxycarbonyl-2,4-di(2-methoxylphenyl)cyclobutane-1-carboxylate]

Kd [8]: 2.56 µM
Kd [9]: 2.04 µM
Compound: CN(C)c1cccc2c(S(=O)(=O)NCCCCCCCCCCC(=O)O)cccc12 [DAUDA, 11-[5-(Dimethylamino)-1-naphthalenesulfonyl-amino]undecanoic acid]
